Among the data in paper PMC12040169 (PLOS Biology, 2025) are viability values, retold here.

By viability is commonly meant a read-out of living cells in per cent, often relative to untreated cells.

The structures appear in SMILES notation.

This data set can be described thus: in vitro. The conditions noted are these: human, hela cells, % viability.

Take `O=C(NCc1ccccc1)c1cccc(NC(=O)c2cc(-c3ccccn3)nc3ccc(Cl)cc23)c1` [CBK267768]: the viability at 28.5 h, 10 µM came out at 94%.
Turning to `Clc1nc2ccccc2nc1N1CCCC1` [CBK083596], the viability at 28.5 h, 10 µM stood at 101%.
The figure for `CSCCC(=O)N1CCC2(CCN(C(=O)c3cc(F)c(F)cc3F)C2)C1` (centres unmarked) [CBK131397] is 99.5%; for `CCN(CC)C(=O)N1CCC2(CC1)CC(=O)c1ccccc1O2` [CBK283495] it is 105%.
The result for `Cn1ccnc1C1(O)CCN(C(=O)C2(c3ccccc3)CC2)CC1` [CBK283538] reads 98.4%; that for `O=C(O)c1ccc(CN2C[C@H](O)C[C@H]2c2nc(-c3ccccn3)no2)cc1` [CBK288869], 90%; that for `Cc1ccccc1CSCC(=O)N1CCN(c2ccccc2)CC1` [CBK058577], 89%.
The figure for `CCC(C(=O)N1CCc2nc(C)[nH]c(=O)c2C1)c1ccccc1` (centres unmarked) [CBK284618] is 91.6%; for `Cc1cc(C(=O)N2CCN(C)CC2)ccc1-c1cnc(N)c(-c2ccc(O)cc2)n1` [CBK126749] it is 94.8%; for `Cn1c(C(=O)N2CCc3ccccc3C2)cc2ccccc21` [CBK200337] it is 96.7%.
In the case of `O=CN1CCc2c([nH]c3cc(F)ccc23)C12CCN(CCc1cccs1)CC2` [CBK040312], the viability at 28.5 h, 10 µM turned out to be 81.2%.
Take `N#CCCCN1CCC(Oc2nccnc2OCc2cccc(OCc3ccccc3)c2)CC1` [CBK161572]: the viability at 28.5 h, 10 µM came to 97.5%.
The figure for `CCN1C(=O)C2(CC(=O)N(Cc3ccccc3)C2=O)c2cc(Cl)ccc21` (centres unmarked) [CBK075233] is 99.1%; for `CC(C(=O)Nc1ccc2c(c1)OCO2)N(c1ccc(Cl)cc1)S(C)(=O)=O` (centres unmarked) [CBK268595] it is 89.5%.
The result for `COc1nccc(N2CCC3(CCCN(CC4CCC4)C3=O)C2)c1C#N` (centres unmarked) [CBK306861] reads 84.3%.
The figure for `N#Cc1c(NC(=O)CSc2nc(-c3ccco3)cc(C(F)(F)F)n2)sc2c1CCCC2` [CBK266193] is 87%.
Regarding `CC(=O)NCCn1nc(-c2ccccc2F)cc1CN(C)C` [CBK283473], the viability at 28.5 h, 10 µM is 95.7%.
The result for `COc1cc(C)nc(NCc2cnn(C)c2C)n1` [CBK306277] reads 85.4%; that for `COCCc1ccccc1NC1CCN(c2nccs2)CC1` [CBK305476], 91.2%; that for `COc1ccc2nc(NC(=O)c3ccc(Br)s3)sc2c1` [CBK287316], 92.8%.
The figure for `Cn1ncc2c1CCCC2NC(=O)NCc1ccc(C#N)cc1F` (centres unmarked) [CBK305193] is 85.4%; for `Cc1ccc(-c2cnc(SCC(N)=O)n2-c2ccccc2)cc1` [CBK287757] it is 113%; for `Cc1ccc(S(=O)(=O)N2CCOCC2)cc1S(=O)(=O)N1CCOCC1` [CBK261733] it is 90.8%.
The result for `Nc1ncc(-c2ccsc2)nc1NCC1CCOCC1` [CBK063848] reads 102%.
For `OC1(C2CNc3ccccc3C2)CCNCC1` (centres unmarked) [CBK283847], the viability at 28.5 h, 10 µM worked out at 110%.
The figure for `O=C(O)c1cc(S(=O)(=O)NCc2ccccc2)ccc1Br` [CBK261768] is 96.9%; for `CCCn1cnnc1C(C)NS(=O)(=O)c1cccc(C(=O)N2CCC2)c1` (centres unmarked) [CBK306569] it is 103%.
The figure for `CCC#CC(=O)Nc1ccccc1N1CCCNCC1` [CBK024291T] is 98.5%.
As to `CN1CCN(c2nc(NS(=O)(=O)c3ccc(OC(F)(F)F)cc3)cc3ccccc23)CC1` [CBK002978C], the viability at 28.5 h, 10 µM turned out to be 87.7%.
Regarding `COc1ccc(CCCC(=O)Nc2cc(N3CCNCC3)nc(SC)n2)cc1OC` [CBK050261T], the viability at 28.5 h, 10 µM stood at 101%.
Turning to `COc1cc2c(cc1/C=C1/S/C(=N\c3ccccc3)N(CCCN3CCOCC3)C1=O)OCO2` [CBK265631], the viability at 28.5 h, 10 µM came out at 78.7%.
The figure for `CCCCOC(=O)CCc1nc2ccccc2nc1O` [CBK264523] is 97.3%.
The result for `CNC(=S)NCCc1c[nH]c2ccccc12` [CBK264853] reads 108%.
Turning to `Cc1csc(C(Cc2cccs2)NC(=O)Cc2ccccn2)n1` (centres unmarked) [CBK285005], the viability at 28.5 h, 10 µM turned out to be 94.3%.
On to `FC(F)(F)c1cc(-c2cn3ccnc3c(NCCc3cccnc3)n2)cc(C(F)(F)F)c1` [CBK066146], for which the viability at 28.5 h, 10 µM turned out to be 98.1%.
For `COc1ccc(-c2cc(C(=O)N[C@H]3CCN(Cc4ccccc4)C3)cnc2-c2ccccc2)cn1` [CBK037605], the viability at 28.5 h, 10 µM is 93.9%.
The result for `O=c1[nH]c2ncc(-c3ccsc3)nc2n1C1CCCCC1` [CBK064574] reads 92.6%; that for `CCc1nc2ccc(C(=O)NC3=NN(c4ccccc4)C(=O)C3)cn2c1N(C)Cc1cccs1` [CBK145557], 93%; that for `CCCCNC(=S)NC1CC[C@@]2(c3ccc(Br)cc3)CCN(C)[C@H]2C1` (some centres unmarked) [CBK003781], 111%.
As for `Cc1ccc(C(=O)N2CCC(O)(c3cccnc3F)CC2)o1` [CBK284358], the viability at 28.5 h, 10 µM turned out to be 94.4%.
With `Cc1ccc(NCc2nc3ccccc3n2Cc2ccccc2)cc1C` [CBK263756], the viability at 28.5 h, 10 µM is 98.4%.
The figure for `O=c1oc2cc(Oc3ccc([N+](=O)[O-])cc3C(F)(F)F)c(Cl)cc2c2c1CCCC2` [CBK264914] is 93.7%.
Consider `COc1ccc(-n2nc(C)c3onc(C)c3c2=O)cc1` [CBK000853], for which the viability at 28.5 h, 10 µM amounted to 101%.
With `CC(C)CSc1nccnc1N1CCCC1` [CBK103683], the viability at 28.5 h, 10 µM worked out at 97.7%.
The figure for `O=C1CCc2cc(S(=O)(=O)Nc3cccc(-c4ccc(F)cc4)c3)ccc2N1` [CBK286371] is 102%; for `CC(=O)Nc1ncc(Cl)s1` [CBK015564] it is 108%.
The result for `O=S(=O)(NCC1COc2ccccc2O1)c1cc(Cl)sc1Cl` (centres unmarked) [CBK057394] reads 85.4%.
The figure for `Cc1nc(SCC(=O)N2CCC(C)CC2)c2c3c(sc2n1)CCC3` [CBK265944] is 86.1%.
On to `OC1(c2ccccc2)CCN(Cc2cncn2Cc2ccccc2)C1` (centres unmarked) [CBK282809], for which the viability at 28.5 h, 10 µM is 110%.
The result for `Cc1onc(-c2c(Cl)cccc2Cl)c1C(=O)N(C)C` [CBK160437] reads 97%.
`CCCN1CCN(C(=O)c2ccc(=O)n(C)c2)C(Cc2ccccc2-c2ccccc2)C1=O` (centres unmarked) [CBK285836]: the viability at 28.5 h, 10 µM was found to be 108%.
Regarding `CCOC(=O)N/N=C(/C)C(C)(C)C` [CBK016460], the viability at 28.5 h, 10 µM turned out to be 105%.
The figure for `O=[N+]([O-])c1ccc(OCCCNCCO)cc1` [CBK262244] is 92.3%.
In the case of `CCCC/C=C/c1cncc(N[C@H](CO)C(C)C)n1` [CBK065314], the viability at 28.5 h, 10 µM was determined as 97%.
The figure for `CCOc1ccccc1Nc1c([N+](=O)[O-])nn(-c2ccc(OC)cc2)[n+]1[O-]` [CBK268411] is 90.2%.
Regarding `CC(C)(C)Cc1ccc(CC(=O)O)c(OCc2ccccc2)n1` [CBK012508], the viability at 28.5 h, 10 µM is 92.6%.
The figure for `COc1ncc(-c2nccnc2OCc2ccccc2)c(OC)n1` [CBK106748] is 108%; for `Cc1cc(N2CCOCC2)c2c(N)c(C)cc(C)c2n1` [CBK126908] it is 83.8%.
In the case of `CC(C)C[C@H](NC(=O)OC(C)(C)C)C(=O)N1CCC(C(=O)O)CC1` [CBK286742], the viability at 28.5 h, 10 µM was 80.6%.
For `CNC(=O)c1ccc(-c2ccco2)nc1N1CCOCC1` [CBK106212], the viability at 28.5 h, 10 µM turned out to be 108%.
For `O=C(c1ccc2occc2c1)N1CCCC2(CCN(Cc3ccccc3)C2)C1` (centres unmarked) [CBK136882], the viability at 28.5 h, 10 µM came to 105%.
The result for `CCOC(=O)N1C(=O)c2ccccc2NC1(C(F)(F)F)C(F)(F)F` [CBK025725] reads 102%; that for `O=C(NCc1ccccn1)c1cnn2c(C(F)(F)F)cc(-c3cccs3)nc12` [CBK268195], 99.9%.
The result for `CC(=O)N1CCc2sccc2C1c1ccc(NC(=O)c2ccccc2F)cc1` (centres unmarked) [CBK286433] reads 84.2%.
Turning to `CS(=O)(=O)c1ccc(-c2ccc(C(=O)NCc3ccccc3)cn2)cc1` [CBK158885], the viability at 28.5 h, 10 µM amounted to 89.2%.
Consider `CC(=O)Nc1cc(C(=O)NCc2ccc(F)cc2)ccc1Sc1ccc(Cl)cc1` [CBK294468], for which the viability at 28.5 h, 10 µM is 96.2%.
The result for `CCN(CC)CCSc1nc2sc3c(c2c(=O)n1-c1ccccc1)CC(C)(C)OC3` [CBK263728] reads 96.6%; that for `COc1ccc(S(=O)(=O)Nc2ccc(C)cc2)cc1C(=O)Nc1ccc(C)cc1` [CBK265172], 94.7%; that for `Cc1ccc(S(=O)(=O)N(C)CC(=O)Nc2ncc(C(F)(F)F)cc2Cl)cc1` [CBK266729], 94.8%.
The result for `O=C1CCC2(CCN1)CCN(Cc1cccc(-c3ccco3)c1)CC2` [CBK307264] reads 115%; that for `COCCc1noc(CC2CCN(c3nc(C)cc(C#N)n3)CC2)n1` [CBK304179], 88.5%; that for `CC1CCc2c(sc3ncnc(NC4CCN(CC(N)=O)CC4)c23)C1` (centres unmarked) [CBK305008], 91.7%.
The figure for `COc1ccc(C(NC(=O)Cc2ccc(-n3nnnc3C)cc2)c2ccccc2)cc1` (centres unmarked) [CBK285537] is 92.8%; for `CCN(Cc1cccnc1)C(CC1CCCCC1)c1ccccc1` (centres unmarked) [CBK061673] it is 98%; for `O=C(COc1ccc(CCO)cc1)Nc1ccccc1-c1ccccc1` [CBK269666] it is 80.9%.
Turning to `Nc1ncc(-c2cc(C(F)(F)F)cc(C(F)(F)F)c2)nc1-c1ccc(O)cc1` [CBK122503], the viability at 28.5 h, 10 µM amounted to 98.3%.
The result for `OCc1ccccc1-c1cncc(N2CCN(c3ccncc3)CC2)n1` [CBK065208] reads 113%; that for `O=C(c1cccnc1)N1CCN(Cc2cccc(Oc3ccccc3)c2)CC1` [CBK263326G], 101%.
The figure for `COc1cc(C=Cc2cc(C(=O)O)c3ccccc3n2)cc(Cl)c1OC(C)C` [CBK296941] is 93.7%.
For the molecule `Cn1cccc1C(=O)N1CCC(OCc2cnc(-c3ccc(S(C)(=O)=O)cc3)cn2)CC1` [CBK172007], the viability at 28.5 h, 10 µM is 106%.
